Consider 16 molecules from PubChem BioAssay AID270 (DTP/NCI, 2004).

Inconclusive results are not listed.

For the assay, the system named is BDF1 mice, s.c. Lewis lung carcinoma, T/C %. As to the kind of experiment: NCI In Vivo Anticancer Drug Screen. Data for tumor model Lewis Lung Carcinoma (subcutaneous) in B6D2F1 (BDF1) mice. The method in brief: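 First, mice carry a transplantable tumor. Next, groups receive either compound or vehicle. Finally, survival or tumor dimensions in the dosed animals are divided by the corresponding control figure.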

[1] abbreviates: endpoint: mean tumor weight, dose: 200.0 mg/kg/injection, schedule: Q01DX011 (ip), vehicle: saline, higher = larger tumour.
Where [2] appears, read: endpoint: median survival time, dose: 50.0 mg/kg/injection, schedule: Q01DX009 (ip), vehicle: Klucel (hydroxypropylcellulose) (HPC), higher = longer survival.
The mark [3] stands for this setting: endpoint: median survival time, dose: 100.0 mg/kg/injection, schedule: Q01DX009 (ip), vehicle: Klucel (hydroxypropylcellulose) (HPC), higher = longer survival.
The mark [4] stands for this setting: endpoint: median survival time, dose: 200.0 mg/kg/injection, schedule: Q01DX009 (ip), vehicle: Klucel (hydroxypropylcellulose) (HPC), higher = longer survival.

Take `NC(=O)NO`: the T/C is 66 % of control (endpoint: mean tumor weight (est.), dose: 100.0 mg/kg/injection, schedule: Q01DX009 (ip), vehicle: water, higher = larger tumour); 28 % of control (endpoint: mean tumor weight (est.), dose: 200.0 mg/kg/injection, schedule: Q01DX009 (ip), vehicle: water, higher = larger tumour); 33 % of control (endpoint: mean tumor weight (est.), dose: 400.0 mg/kg/injection, schedule: Q01DX009 (ip), vehicle: water, higher = larger tumour); 58 % of control (endpoint: mean tumor weight, dose: 25.0 mg/kg/injection, schedule: Q01DX011 (ip), vehicle: saline, higher = larger tumour); 90 % of control (endpoint: mean tumor weight, dose: 50.0 mg/kg/injection, schedule: Q01DX011 (ip), vehicle: saline, higher = larger tumour); 89 % of control (endpoint: mean tumor weight, dose: 100.0 mg/kg/injection, schedule: Q01DX011 (ip), vehicle: saline, higher = larger tumour). Moreover, the T/C under setting [1] is 31 % of control; the T/C (endpoint: median survival time, dose: 2.5 mg/kg/injection, schedule: Q08HX024 (ip), vehicle: saline, higher = longer survival) is 92 % of control; the T/C (endpoint: median survival time, dose: 10.0 mg/kg/injection, schedule: Q08HX024 (ip), vehicle: Klucel (hydroxypropylcellulose) (HPC), higher = longer survival) was 181 % of control; the T/C (endpoint: median survival time, dose: 20.0 mg/kg/injection, schedule: Q08HX024 (ip), vehicle: Klucel (hydroxypropylcellulose) (HPC), higher = longer survival) was 181 % of control; the T/C (endpoint: median survival time, dose: 40.0 mg/kg/injection, schedule: Q08HX024 (ip), vehicle: Klucel (hydroxypropylcellulose) (HPC), higher = longer survival) was 95 % of control; the T/C (endpoint: median survival time, dose: 40.0 mg/kg/injection, schedule: Q08HX024 (ip), vehicle: saline, higher = longer survival) was 90 % of control. In addition, the T/C is 119 % of control (endpoint: median survival time, dose: 97.0 mg/kg/injection, schedule: Q01DX009 (ip), vehicle: saline, higher = longer survival); 94 % of control (endpoint: median survival time, dose: 100.0 mg/kg/injection, schedule: Q01DX009 (ip), vehicle: water, higher = longer survival); 100 % of control (endpoint: median survival time, dose: 200.0 mg/kg/injection, schedule: Q01DX009 (ip), vehicle: water, higher = longer survival); 56 % of control (endpoint: median survival time, dose: 1250.0 mg/kg/injection, schedule: Q01DX009 (ip), vehicle: saline, higher = longer survival).

For `CCCCCCC(=O)NC1=C(N2CC2)C(=O)C(NC(=O)CCCCCC)=C(N2CC2)C1=O`, the T/C runs as follows: (endpoint: mean tumor weight, dose: 3.8 mg/kg/injection, schedule: Q01DX011 (ip), vehicle: other, higher = larger tumour) 101 % of control; (endpoint: mean tumor weight, dose: 7.5 mg/kg/injection, schedule: Q01DX011 (ip), vehicle: other, higher = larger tumour) 81 % of control; (endpoint: mean tumor weight, dose: 30.0 mg/kg/injection, schedule: Q01DX011 (ip), vehicle: other, higher = larger tumour) 78 % of control; (endpoint: mean tumor weight, dose: 60.0 mg/kg/injection, schedule: Q01DX011 (ip), vehicle: other, higher = larger tumour) 30 % of control.

In the case of `COC1=C(N)C(=O)c2nc(-c3nc(C(=O)O)c(C)cc3N)ccc2C1=O`, the T/C is, setting by setting: (endpoint: median survival time, dose: 0.02 mg/kg/injection, schedule: Q01DX009 (ip), vehicle: Klucel (hydroxypropylcellulose) (HPC), higher = longer survival) 91 % of control; (endpoint: median survival time, dose: 0.05 mg/kg/injection, schedule: Q01DX009 (ip), vehicle: Klucel (hydroxypropylcellulose) (HPC), higher = longer survival) 106 % of control; (endpoint: median survival time, dose: 0.1 mg/kg/injection, schedule: Q01DX009 (ip), vehicle: Klucel (hydroxypropylcellulose) (HPC), higher = longer survival) 103 % of control.

`CCC(CCC(C)C1CCC2C3CC=C4CC(OC(=O)CCC(=O)O)CCC4(C)C3CCC12C)C(C)C` (centres undefined): the T/C (endpoint: mean tumor weight, dose: 200.0 mg/kg/injection, schedule: Q01DX011 (ip), vehicle: water, higher = larger tumour) is 63 % of control; the T/C (endpoint: mean tumor weight, dose: 400.0 mg/kg/injection, schedule: Q01DX011 (ip), vehicle: water, higher = larger tumour) was 38 % of control; the T/C (endpoint: mean tumor weight, dose: 450.0 mg/kg/injection, schedule: Q01DX011 (ip), vehicle: water, higher = larger tumour) is 59 % of control; the T/C (endpoint: mean tumor weight, dose: 600.0 mg/kg/injection, schedule: Q01DX011 (ip), vehicle: water, higher = larger tumour) is 31 % of control.

Turning to `N=C(N)NC(=N)Nc1ccc(NC(=O)Nc2ccc(Nc3c4ccccc4nc4cc([N+](=O)[O-])ccc34)cc2)cc1`, the T/C is 111 % of control (endpoint: median survival time, dose: 1.56 mg/kg/injection, schedule: Q01DX009 (ip), vehicle: water, higher = longer survival); 108 % of control (endpoint: median survival time, dose: 6.25 mg/kg/injection, schedule: Q01DX009 (ip), vehicle: water, higher = longer survival); 112 % of control (endpoint: median survival time, dose: 12.5 mg/kg/injection, schedule: Q01DX009 (ip), vehicle: water, higher = longer survival); 103 % of control (endpoint: median survival time, dose: 25.0 mg/kg/injection, schedule: Q01DX009 (ip), vehicle: water, higher = longer survival); 112 % of control (endpoint: median survival time, dose: 50.0 mg/kg/injection, schedule: Q01DX009 (ip), vehicle: water, higher = longer survival).

Regarding `CCCCC[C@H](O)/C=C/[C@H]1[C@H](O)CC(=O)[C@@H]1C/C=C\CCCC(=O)O`, the T/C (endpoint: median survival time, dose: 50.0 mg/kg/injection, schedule: Q04DX002 (ip), vehicle: saline with Tween-80, higher = longer survival) was 95 % of control.

Regarding `CC(=O)[C@H]1CC[C@H]2[C@@H]3CC[C@@H]4CC(=O)CC[C@]4(C)[C@H]3[C@@H]3O[C@@H]3[C@]12C`, the T/C (endpoint: mean tumor weight, dose: 37.0 mg/kg/injection, schedule: Q01DX011 (ip), vehicle: other, higher = larger tumour) is 150 % of control; the T/C (endpoint: mean tumor weight, dose: 55.0 mg/kg/injection, schedule: Q01DX011 (ip), vehicle: other, higher = larger tumour) is 99 % of control; the T/C (endpoint: mean tumor weight, dose: 83.0 mg/kg/injection, schedule: Q01DX011 (ip), vehicle: other, higher = larger tumour) was 108 % of control; the T/C (endpoint: mean tumor weight, dose: 250.0 mg/kg/injection, schedule: Q01DX011 (ip), vehicle: other, higher = larger tumour) is 122 % of control.

`CCCCSc1nc(N)nc2c1ncn2CC(C)CC` (centres undefined): the T/C reads like this: (endpoint: mean tumor weight, dose: 75.0 mg/kg/injection, schedule: Q01DX011 (ip), vehicle: other, higher = larger tumour) 103 % of control; (endpoint: mean tumor weight, dose: 150.0 mg/kg/injection, schedule: Q01DX011 (ip), vehicle: other, higher = larger tumour) 50 % of control; (endpoint: mean tumor weight, dose: 300.0 mg/kg/injection, schedule: Q01DX011 (ip), vehicle: other, higher = larger tumour) 53 % of control.

As to `CCn1c2ccccc2c2cc(NC(=O)N(CCCl)N=O)ccc21`, the T/C was 89 % of control (endpoint: median survival time, dose: 50.0 mg/kg/injection, schedule: Q01DX001 (ip), vehicle: saline with Tween-80, higher = longer survival) and 96 % of control (endpoint: median survival time, dose: 100.0 mg/kg/injection, schedule: Q01DX001 (ip), vehicle: saline with Tween-80, higher = longer survival).

Regarding `O=CNCCO`, the T/C runs as follows: (endpoint: mean tumor weight, dose: 133.0 mg/kg/injection, schedule: Q01DX011 (ip), vehicle: saline, higher = larger tumour) 69 % of control; under setting [1], 79 % of control; (endpoint: mean tumor weight, dose: 300.0 mg/kg/injection, schedule: Q01DX011 (ip), vehicle: saline, higher = larger tumour) 48 % of control; (endpoint: mean tumor weight, dose: 450.0 mg/kg/injection, schedule: Q01DX011 (ip), vehicle: saline, higher = larger tumour) 54 % of control; (endpoint: mean tumor weight, dose: 750.0 mg/kg/injection, schedule: Q01DX011 (ip), vehicle: saline, higher = larger tumour) 81 % of control.

For the molecule `CC1=C(/C=C/C(C)=C/C=C/C(C)=C/C=O)C(C)(C)CCC1`, the T/C (endpoint: median survival time, dose: 16.0 mg/kg/injection, schedule: Q01DX005 (ip), vehicle: DMSO, higher = longer survival) was 153 % of control and the T/C (endpoint: median survival time, dose: 32.0 mg/kg/injection, schedule: Q01DX005 (ip), vehicle: DMSO, higher = longer survival) is 151 % of control.

Take `CC1(C)N=C(N)N=C(N)N1c1cccc(Br)c1`: the T/C (endpoint: mean tumor weight, dose: 50.0 mg/kg/injection, schedule: Q01DX011 (ip), vehicle: other, higher = larger tumour) was 16 % of control.

As for `CC(=O)Oc1ccc(/C=N/NC(N)=S)nc1`, the T/C is 97 % of control (endpoint: median survival time, dose: 9.4 mg/kg/injection, schedule: Q01DX009 (ip), vehicle: saline with Tween-80, higher = longer survival); 97 % of control (endpoint: median survival time, dose: 18.8 mg/kg/injection, schedule: Q01DX009 (ip), vehicle: saline with Tween-80, higher = longer survival); 100 % of control (endpoint: median survival time, dose: 25.0 mg/kg/injection, schedule: Q01DX009 (ip), vehicle: saline with Tween-80, higher = longer survival); 101 % of control (endpoint: median survival time, dose: 37.5 mg/kg/injection, schedule: Q01DX009 (ip), vehicle: saline with Tween-80, higher = longer survival); 107 % of control (endpoint: median survival time, dose: 50.0 mg/kg/injection, schedule: Q01DX009 (ip), vehicle: saline with Tween-80, higher = longer survival); 117 % of control (endpoint: median survival time, dose: 75.0 mg/kg/injection, schedule: Q01DX009 (ip), vehicle: saline with Tween-80, higher = longer survival). The T/C runs as follows: (endpoint: median survival time, dose: 100.0 mg/kg/injection, schedule: Q01DX009 (ip), vehicle: saline with Tween-80, higher = longer survival) 117 % of control; (endpoint: median tumor weight (est.), dose: 24.0 mg/kg/injection, schedule: Q03HX024 (ip), vehicle: saline with Tween-80, higher = larger tumour) 96 % of control; (endpoint: median tumor weight (est.), dose: 36.0 mg/kg/injection, schedule: Q03HX024 (ip), vehicle: saline with Tween-80, higher = larger tumour) 41 % of control.

For `O=NN(CCCl)C(=O)Nc1ccc2c3c(cccc13)-c1ccccc1-2`, the T/C by setting is: under setting [2], 100 % of control; under setting [3], 97 % of control; under setting [4], 88 % of control.

For the molecule `O=C(O)c1c2c(nc3ccccc13)Cc1ccccc1-2`, the T/C under setting [2] was 99 % of control, the T/C under setting [3] was 109 % of control and the T/C under setting [4] was 109 % of control.

Regarding `CN(C)Cc1c[nH]c2ccccc12`, the T/C reads like this: (endpoint: mean tumor weight, dose: 26.6 mg/kg/injection, schedule: Q01DX011 (ip), vehicle: carboxymethylcellulose (CMC), higher = larger tumour) 94 % of control; (endpoint: mean tumor weight, dose: 40.0 mg/kg/injection, schedule: Q01DX011 (ip), vehicle: carboxymethylcellulose (CMC), higher = larger tumour) 70 % of control; (endpoint: mean tumor weight, dose: 60.0 mg/kg/injection, schedule: Q01DX011 (ip), vehicle: carboxymethylcellulose (CMC), higher = larger tumour) 62 % of control; (endpoint: mean tumor weight, dose: 90.0 mg/kg/injection, schedule: Q01DX011 (ip), vehicle: carboxymethylcellulose (CMC), higher = larger tumour) 57 % of control.
